Reference: BindingDB's records for doi:10.1016/s0960-894x(98)00132-2 (Green Cross Research Laboratories, 1999)

Target: Chymotrypsinogen A (Bos taurus) (UniProt P00766)
Assay: Compound was evaluated for inhibitory activity against Bovine Chymotrypsinogen

CC(C)(C)OC(=O)NC(CCC(=O)O)C(=O)N1CCC[C@H]1C(=O)NC(Cc1ccccc1)C(=O)C(F)(F)C(=O)Nc1cccc(C(N)=O)c1 (stereo partly drawn) [5-{(S)-2-[1-Benzyl-3-(3-carbamoyl-phenylcarbamoyl)-3,3-difluoro-2-oxo-propylcarbamoyl]-pyrrolidin-1-yl}-4-tert-butoxycarbonylamino-5-oxo-pentanoic acid]
Ki: 1220 nM

CC(C)(C)OC(=O)NC(CC(=O)O)C(=O)N1CCC[C@H]1C(=O)NC(Cc1ccccc1)C(=O)C(F)(F)C(=O)Nc1cccc(C(=O)O)c1 (stereo partly drawn) [3-(4-{[(S)-1-(2-tert-Butoxycarbonylamino-3-carboxy-propionyl)-pyrrolidine-2-carbonyl]-amino}-2,2-difluoro-3-oxo-5-phenyl-pentanoylamino)-benzoic acid]
Ki: > 100000 nM

CC(C)(C)OC(=O)NC(CCC(=O)O)C(=O)N1CCC[C@H]1C(=O)NC(Cc1ccccc1)C(=O)C(F)(F)C(=O)Nc1cc(C(=O)O)cs1 (stereo partly drawn) [5-(4-{[(S)-1-(2-tert-Butoxycarbonylamino-4-carboxy-butyryl)-pyrrolidine-2-carbonyl]-amino}-2,2-difluoro-3-oxo-5-phenyl-pentanoylamino)-thiophene-3-carboxylic acid]
Ki: > 100000 nM

CC(C)(C)OC(=O)NC(CCC(=O)O)C(=O)N1CCC[C@H]1C(=O)NC(Cc1ccccc1)C(=O)C(F)(F)C(=O)Nc1cccc(S(N)(=O)=O)c1 (stereo partly drawn) [5-{(S)-2-[1-Benzyl-3,3-difluoro-2-oxo-3-(3-sulfamoyl-phenylcarbamoyl)-propylcarbamoyl]-pyrrolidin-1-yl}-4-tert-butoxycarbonylamino-5-oxo-pentanoic acid]
Ki: 1030 nM

CC(C)(C)OC(=O)NC(CCC(=O)O)C(=O)N1CCC[C@H]1C(=O)NC(Cc1ccccc1)C(=O)C(F)(F)C(=O)Nc1cccc(C(=O)O)c1 (stereo partly drawn) [3-(4-{[(S)-1-(2-tert-Butoxycarbonylamino-4-carboxy-butyryl)-pyrrolidine-2-carbonyl]-amino}-2,2-difluoro-3-oxo-5-phenyl-pentanoylamino)-benzoic acid]
Ki: 1300 nM

CC(C)(C)OC(=O)NC(CCC(=O)O)C(=O)N1CCC[C@H]1C(=O)NC(Cc1ccccc1)C(=O)C(F)(F)C(=O)Nc1cccc(CC(=O)O)c1 (stereo partly drawn) [5-{(S)-2-[1-Benzyl-3-(3-carboxymethyl-phenylcarbamoyl)-3,3-difluoro-2-oxo-propylcarbamoyl]-pyrrolidin-1-yl}-4-tert-butoxycarbonylamino-5-oxo-pentanoic acid]
Ki: 3950 nM
